From patent US7875587B2, “Peptide analogues of GIP for treatment of diabetes, insulin resistance and obesity” (UUTECH Limited, priority 2004, dated 2011)
No end group written: not given here.

Test system: normal mice
Assay: Chronic (11 days) (Pro3)GIP administration in normal mice
Format: in vivo, mouse
Experimental: Effects of chronic (Pro^3)GIP administration on plasma glucose, insulin and glycated HbA1c in obese diabetic ob/ob mice and normal mice. Obese diabetic ob/ob mice and normal control mice aged 8-12 weeks were randomly divided into groups which received once daily subcutaneous injections (17:00 h) of either saline (0.9% w/v NaCl) or (Pro^3)GIP (25 nmol/kg body weight in saline). After 11 days, treatment was ceased. Food intake and body weight were recorded daily. Blood samples were collected from the cut tip of the tail of conscious mice into chilled fluoride/heparin coated glucose microcentrifuge tubes (Sarstedt, Numbrecht, Germany). Blood samples were immediately centrifuged using a Beckman microcentrifuge (Beckman Instruments, UK) for 30 seconds at 13000 g prior to glucose, insulin and HbA1c determinations.
Effects of chronic treatment with (Pro^3)GIP on glucose tolerance in ob/ob mice and normal mice. Plasma glucose and insulin concentrations were measured following intraperitoneal administration of glucose (18 mmol/kg body weight) in ob/ob and normal mice treated with either saline (0.9% w/v NaCl) or (Pro^3)GIP (25 nmol/kg body weight/day) for 11 days. […]
Determination of HbA1c, plasma glucose and insulin concentrations. HbA1c was measured in whole blood by ion-exchange high-performance liquid chromatography using the Menari HA-8140 kit (BIOMEN, Berkshire, UK). […]

YAPGTFISDYSIAMDKIHQQDFVNWLLAQKGKKNDWKHNITQ [(Pro^3)GIP]
glucose tolerance in normal mice after cessation (9 days after cessation of treatment): reversed 9 days after cessation of treatment | glucose tolerance in normal mice (daily treatment for 11 days): marked deterioration of glucose tolerance
